The values that follow come from patent US9120779B2, “Inhibitors of HCV NS5A” (PRESIDIO PHARMACEUTICALS, INC., priority 2008, dated 2015).

One assay deals with HCV genotype 1b replicon in Huh 7 cells. Briefly: HCV replicon assay (luciferase readout, 1b_Huh-Luc/Neo-ET cell line). To be noted: Hepatitis C virus, Huh-7, 72 h, read-out: Inhibition of HCV genotype 1b, Table 1, 72 h incubation. The class given is cell-based. The procedure: Biological activity of the compounds of the invention was determined using an HCV replicon assay. The 1b_Huh-Luc/Neo-ET cell line persistently expressing a bicistronic genotype 1b replicon in Huh 7 cells was obtained from R^eBLikon GMBH. This cell line was used to test compound inhibition using luciferase enzyme activity readout as a measurement of compound inhibition of replicon levels.
On Day 1 (the day after plating), each compound is added in triplicate to the cells. Plates incubated for 72 h prior to running the luciferase assay. Enzyme activity was measured using a Bright-Glo Kit (cat. number E2620) manufactured by Promega Corporation. The following equation was used to generate a percent control value for each compound. % Control=(Average Compound Value/Average Control)*100
The EC50 value was determined using GraphPad Prism and the following equation: Y=Bottom+(Top−Bottom)/(1+10^((Log IC50−X)*HillSlope))
EC50 values of compounds are repeated several times in the replicon assay.
Example compounds of the disclosed invention are illustrated in Tables 1-9 attached as appendices. The tables show inhibitory activity of many of the example compounds with respect to HCV 1b. […] The tables further provide mass spectrometry results for the synthesized example compounds.
In the case of `CC(C)[C@H](NC(=O)OC(C)(C)C)C(=O)N1CCC[C@H]1c1ncc(-c2ccc([C@H]3CC[C@H](c4cnc([C@@H]5CCCN5C(=O)[C@@H](NC(=O)OC(C)(C)C)C(C)C)[nH]4)CC3)cc2)[nH]1` [compound 383], the EC50 is 10 to 999 nM.
For the compound `CC(C)[C@H](NC(=O)OC(C)(C)C)C(=O)N1CCC[C@H]1c1ncc(-c2ccc([C@H]3CC[C@@H](c4cnc([C@@H]5CCCN5C(=O)[C@@H](NC(=O)OC(C)(C)C)C(C)C)[nH]4)CC3)cc2)[nH]1` [compound 384], the EC50 was in the range of 10 to 999 nM.
In the case of `CC(C)[C@H](NC(=O)N1CCOCC1)C(=O)N1CCC[C@H]1c1ncc(-c2ccc([C@H]3CC[C@H](c4cnc([C@@H]5CCCN5C(=O)[C@@H](NC(=O)N5CCOCC5)C(C)C)[nH]4)CC3)cc2)[nH]1` [compound 385], the EC50 lay within 10 to 999 nM.
Regarding `CC(C)[C@H](NC(=O)N1CCOCC1)C(=O)N1CCC[C@H]1c1ncc(-c2ccc([C@H]3CC[C@@H](c4cnc([C@@H]5CCCN5C(=O)[C@@H](NC(=O)N5CCOCC5)C(C)C)[nH]4)CC3)cc2)[nH]1` [compound 386], the EC50 was in the range of 10 to 999 nM.
On the same count and under the same terms, next, `COC(=O)N[C@@H](C)C(=O)N1CCC[C@H]1c1ncc(-c2ccc([C@H]3CC[C@H](c4cnc([C@@H]5CCCN5C(=O)[C@H](C)NC(=O)OC)[nH]4)CC3)cc2)[nH]1` [compound 387]: less than 1 nM.
Turning to `COC(=O)N[C@H](C(=O)N1CCC[C@H]1c1ncc(-c2ccc([C@H]3CC[C@H](c4cnc([C@@H]5CCCN5C(=O)[C@@H](NC(=O)OC)[C@@H](C)OC)[nH]4)CC3)cc2)[nH]1)[C@@H](C)OC` [compound 388], the EC50 is less than 1 nM.

Staying with this assay, now noted: Hepatitis C virus, Huh-7, 72 h, read-out: Inhibition of HCV genotype 1b, Table 2, 72 h incubation.
With `CC(C)(C)OC(=O)N[C@@H](C(=O)N1CCC[C@H]1c1ncc(-c2ccc(-c3ccc4nc([C@@H]5CCCN5C(=O)[C@H](NC(=O)OC(C)(C)C)c5ccccc5)[nH]c4c3)cc2)[nH]1)c1ccccc1` [compound 400], the EC50 is less than 1 nM.
On the same count and under the same terms, next, `COC(=O)N[C@@H](C(=O)N1CCC[C@H]1c1ncc(-c2ccc(-c3ccc4nc([C@@H]5CCCN5C(=O)[C@H](NC(=O)OC)c5ccccc5)[nH]c4c3)cc2)[nH]1)c1ccccc1` [compound 401]: less than 1 nM.
On to `COC(=O)N[C@H](C(=O)N1CCC[C@H]1c1ncc(-c2ccc(-c3ccc4nc([C@@H]5CCCN5C(=O)[C@@H](NC(=O)OC)[C@@H](C)OC)[nH]c4c3)cc2)[nH]1)[C@@H](C)OC` [compound 402], for which the EC50 is less than 1 nM.
Still for that read-out and setting: next, `COC(=O)N[C@H](C(=O)N1CCC[C@H]1c1ncc(-c2ccc(-c3ccc4nc([C@@H]5CCCN5C(=O)[C@@H](NC(=O)OC)C(C)C)[nH]c4c3)cc2)[nH]1)C(C)C` [compound 403]: less than 1 nM; `COC(=O)N[C@@H](C(=O)N1CCC[C@H]1c1ncc(-c2ccc(-c3ccc4nc([C@@H]5CCCN5C(=O)[C@H](NC(=O)OC)C(C)C)[nH]c4c3)cc2)[nH]1)C(C)C` [compound 404]: 1 to 9.9 nM.

Still in this assay, the particulars now being: Hepatitis C virus, Huh-7, 72 h, read-out: Inhibition of HCV genotype 1b, Table 3, 72 h incubation.
With `CC(C)(C)OC(=O)N[C@@H](C(=O)N1CCC[C@H]1c1ncc(-c2ccc(N3CCC(c4cnc([C@@H]5CCCN5C(=O)[C@H](NC(=O)OC(C)(C)C)c5ccccc5)[nH]4)CC3)c(F)c2)[nH]1)c1ccccc1` [compound 450], the EC50 is less than 1 nM.
The same measure, in the same setting: next, `O=C(N[C@@H](C(=O)N1CCC[C@H]1c1ncc(-c2ccc(N3CCC(c4cnc([C@@H]5CCCN5C(=O)[C@H](NC(=O)C5CC5)c5ccccc5)[nH]4)CC3)c(F)c2)[nH]1)c1ccccc1)C1CC1` [compound 451]: less than 1 nM.
Still for that read-out and setting: with `COC(=O)N[C@@H](C(=O)N1CCC[C@H]1c1ncc(-c2ccc(N3CCC(c4cnc([C@@H]5CCCN5C(=O)[C@H](NC(=O)OC)c5ccccc5)[nH]4)CC3)c(F)c2)[nH]1)c1ccccc1` [compound 452] the figure was less than 1 nM; with `CC(C)(C)OC(=O)N[C@@H](C(=O)N1CCC[C@H]1C(=O)NC1CCN(c2ccc(-c3cnc([C@@H]4CCCN4C(=O)[C@H](NC(=O)OC(C)(C)C)c4ccccc4)[nH]3)cc2F)CC1)c1ccccc1` [compound 453], less than 1 nM.
The same measure, in the same setting: with `COC(=O)N[C@@H](C(=O)N1CCC[C@H]1C(=O)NC1CCN(c2ccc(-c3cnc([C@@H]4CCCN4C(=O)[C@H](NC(=O)OC)c4ccccc4)[nH]3)cc2F)CC1)c1ccccc1` [compound 454] the figure was less than 1 nM; with `O=C(NC1CCN(c2ccc(-c3cnc([C@@H]4CCCN4C(=O)[C@H](NC(=O)N4CCOCC4)c4ccccc4)[nH]3)cc2F)CC1)[C@@H]1CCCN1C(=O)[C@H](NC(=O)N1CCOCC1)c1ccccc1` [compound 455], 1 to 9.9 nM.
Consider `O=C(N[C@@H](C(=O)N1CCC[C@H]1C(=O)NC1CCN(c2ccc(-c3cnc([C@@H]4CCCN4C(=O)[C@H](NC(=O)C4CC4)c4ccccc4)[nH]3)cc2F)CC1)c1ccccc1)C1CC1` [compound 456], for which the EC50 was less than 1 nM.
In the case of `CN(C)C(=O)N[C@@H](C(=O)N1CCC[C@H]1C(=O)NC1CCN(c2ccc(-c3cnc([C@@H]4CCCN4C(=O)[C@H](NC(=O)N(C)C)c4ccccc4)[nH]3)cc2F)CC1)c1ccccc1` [compound 457], the EC50 was less than 1 nM.
Same read-out and setting: with `COC(=O)N[C@@H](C(=O)N1CCC[C@H]1c1ncc(-c2cc(F)c(N3CCC(c4cnc([C@@H]5CCCN5C(=O)[C@@H](c5ccccc5)N(C)C)[nH]4)CC3)c(F)c2)[nH]1)c1ccccc1` [compound 458] the figure was less than 1 nM; with `COC(=O)N[C@@H](C(=O)N1CCC[C@H]1c1ncc(-c2cc(F)c(N3CCC(c4cnc([C@@H]5CCCN5C(=O)[C@H](NC(=O)OC)c5ccccc5)[nH]4)CC3)c(F)c2)[nH]1)c1ccccc1` [compound 459], less than 1 nM; with `COC(=O)N[C@@H](C(=O)N1CCC[C@H]1c1ncc(-c2cc(F)c(N3CCC(c4cnc([C@@H]5CCCN5C(=O)[C@H](NC(=O)OC(C)(C)C)c5ccccc5)[nH]4)CC3)c(F)c2)[nH]1)c1ccccc1` [compound 460], less than 1 nM.
Same read-out and setting: next, `COC(=O)N[C@@H](C(=O)N1CCC[C@H]1c1ncc(-c2cc(F)c(N3CCC(c4cnc([C@@H]5CCCN5C(=O)[C@H](NC(=O)C5CC5)c5ccccc5)[nH]4)CC3)c(F)c2)[nH]1)c1ccccc1` [compound 461]: less than 1 nM.
With `COC(=O)N[C@@H](C(=O)N1CCC[C@H]1c1ncc(-c2cc(F)c(N3CCC(c4cnc([C@@H]5CCCN5C(=O)[C@H](NC(=O)N5CCN(C)CC5)c5ccccc5)[nH]4)CC3)c(F)c2)[nH]1)c1ccccc1` [compound 462], the EC50 was less than 1 nM.
`COC(=O)N[C@H](C(=O)N1CCC[C@H]1c1ncc(C2CCN(c3c(F)cc(-c4cnc([C@@H]5CCCN5C(=O)[C@H](NC(=O)OC)c5ccccc5)[nH]4)cc3F)CC2)[nH]1)[C@@H](C)OC` [compound 466]: the EC50 is less than 1 nM.
Still for that read-out and setting: with `CCN(CC)[C@@H](C(=O)N1CCC[C@H]1c1ncc(C2CCN(c3c(F)cc(-c4cnc([C@@H]5CCCN5C(=O)[C@H](NC(=O)OC)c5ccccc5)[nH]4)cc3F)CC2)[nH]1)c1ccccc1` [compound 467] the figure was less than 1 nM; with `COC(=O)N[C@@H](C(=O)N1CCC[C@H]1c1ncc(-c2cc(F)c(N3CCC(c4cnc([C@@H]5CCCN5C(=O)[C@@H](c5ccccc5)N5CCOCC5)[nH]4)CC3)c(F)c2)[nH]1)c1ccccc1` [compound 468], less than 1 nM.
The same measure, in the same setting: with `COC(=O)N[C@@H](C(=O)N1CCC[C@H]1c1ncc(-c2cc(F)c(N3CCC(c4cnc([C@@H]5CCCN5C(=O)[C@@H](c5ccccc5)N5CCCCC5)[nH]4)CC3)c(F)c2)[nH]1)c1ccccc1` [compound 469] the figure was less than 1 nM; with `COC(=O)N[C@@H](C(=O)N1CCC[C@H]1c1ncc(-c2cc(F)c(N3CCC(c4cnc([C@@H]5CCCN5C(=O)[C@H](NC(=O)N5CCOCC5)c5ccccc5)[nH]4)CC3)c(F)c2)[nH]1)c1ccccc1` [compound 471], 1 to 9.9 nM.
Still for that read-out and setting: with `COC(=O)N[C@@H](C(=O)N1CCC[C@H]1c1ncc(-c2cc(F)c(N3CCC(c4cnc([C@@H]5CCCN5C(=O)[C@H](NC(=O)[C@@H]5CCCN5C)c5ccccc5)[nH]4)CC3)c(F)c2)[nH]1)c1ccccc1` [compound 472] the figure was less than 1 nM.
Turning to `COC(=O)N[C@@H](C(=O)N1CCC[C@H]1c1ncc(-c2cc(F)c(N3CCC(c4cnc([C@@H]5CCCN5C(=O)[C@H](NS(C)(=O)=O)c5ccccc5)[nH]4)CC3)c(F)c2)[nH]1)c1ccccc1` [compound 474], the EC50 is less than 1 nM.
As to `COC(=O)N[C@@H](C(=O)N1CCC[C@H]1c1ncc(-c2cc(F)c(N3CCC(c4cnc([C@@H]5CCCN5C(=O)[C@@H](c5ccccc5)N5CCCC5)[nH]4)CC3)c(F)c2)[nH]1)c1ccccc1` [compound 475], the EC50 is less than 1 nM.
Still for that read-out and setting: with `CCOC(=O)N[C@@H](C(=O)N1CCC[C@H]1c1ncc(C2CCN(c3c(F)cc(-c4cnc([C@@H]5CCCN5C(=O)[C@H](NC(=O)OC)c5ccccc5)[nH]4)cc3F)CC2)[nH]1)c1ccccc1` [compound 476] the figure was less than 1 nM; with `COC(=O)N[C@@H](C(=O)N1CCC[C@H]1c1ncc(-c2cc(F)c(N3CCC(c4cnc([C@@H]5CCCN5C(=O)[C@H](NS(=O)(=O)C5CC5)c5ccccc5)[nH]4)CC3)c(F)c2)[nH]1)c1ccccc1` [compound 477], less than 1 nM.

The assay is the same for the next values; noted with them: read-out: Inhibition of HCV genotype 1b, Table 3, 72 h incubation.
For `COC(=O)N[C@@H](C(=O)N1CCC[C@H]1c1ncc(-c2cc(F)c(N3CCC(c4cnc([C@@H]5CCCN5C(=O)[C@H](NC(=O)N5CCOCC5)c5ccccc5)[nH]4)CC3)c(F)c2)[nH]1)c1ccccc1` [compound 473], the EC50 is less than 1 nM.
